According to paper PMC5457731, “Molecular cloning, expression, and characterization of four novel thermo-alkaliphilic enzymes retrieved from a metagenomic library” (Biotechnology for Biofuels, 2017):

Assays:
Experiment in all cases: pNP release at […] nm, Lineweaver-Burk
Settings in all cases: 50 mM Tris-HCl pH 7.5, 40 °C, 15 min
[1] = system: T1, protein 5 (gene 5 product, fosmid 10BT); format: biochemical
T1 construct: full-length, pET28b(+) His-tags at N and C termini, E. coli Origami2(DE3) pLysS, ~45 kDa, gene amplicon 1262 bp; alpha-glucosidase assignment unusual, host contaminant possible

[2] = system: T2, protein 6 (gene 6 product, fosmid NT18-17); format: biochemical
T2 construct: full-length, pET28b(+) His-tags at N and C termini, E. coli Origami2(DE3) pLysS, ~22 kDa, gene amplicon 673 bp; alpha-glucosidase assignment unusual, host contaminant possible

[3] = system: T3, protein 2 (gene 2 product, fosmid T5-5); format: biochemical, uncultured bacterium
T3 construct: full-length, pET28b(+) His-tags at N and C termini, E. coli Origami2(DE3) pLysS, ~85 kDa, gene amplicon 2410 bp

[4] = system: T4, protein 1 (gene 1 product, fosmid NT2-2); format: biochemical, uncultured bacterium
T4 construct: full-length, pET28b(+) His-tags at N and C termini, E. coli Origami2(DE3) pLysS, ~116 kDa, gene amplicon 3146 bp

**Q.** What does the source list for `O=[N+]([O-])c1ccc(O[C@H]2O[C@H](CO)[C@@H](O)[C@H](O)[C@H]2O)cc1` [pNP-α-D-glucopyranoside]?
**A.** Km [1]: 7400 µM; Km [2]: 21400 µM

**Q.** With `O=[N+]([O-])c1ccc(O[C@@H]2OC[C@H](O)[C@H](O)[C@H]2O)cc1` [pNP-α-L-arabinopyranoside] as the molecule, how does the Km [3] read?
**A.** The Km was 300 µM.

**Q.** How did the Km [4] turn out when `O=[N+]([O-])c1ccc(O[C@@H]2O[C@H](CO)[C@H](O)[C@H](O)[C@H]2O)cc1` [pNP-β-D-galactopyranoside] was run?
**A.** Its Km is 100 µM.

**Q.** For `O=[N+]([O-])c1ccc(O[C@@H]2OC[C@@H](O)[C@H](O)[C@H]2O)cc1` [pNP-β-D-xylopyranoside], which Km [3] is on record?
**A.** The Km was 1000 µM.
